In patent US10548906B2, “Methods of promoting hepatic regeneration” (Intercept Pharmaceuticals, Inc., priority 2015, dated 2020):

Legend:
Wistar rats = assay: Liver regrowth after 70% partial hepatectomy in post-cholestatic rats (Example 6); format: in vivo
Excerpt: Seven days after BDL or sham operation, all rats were subjected to 70% PHx [DeGraaf 2011]. In all rBDL rats, intestinal bile flow was restored directly prior to PHx by removing the closed cannula tip and inserting the cannula into the duodenum. Animals in all treatment groups were put on regular chow after PHx. OCA treatment was continued after PHx until sacrifice. As depicted in Scheme 1, the study consisted of five experimental groups (n=4-6 animals per group per time point): control (sham), steatosis (MCD), cholestasis (rBDL), combined steatosis and cholestasis (rBDL+MCD), and cholestasis+OCA (rBDL+OCA).
At baseline (i.e., directly before PHx) and one to five days after PHx, animals were euthanized under isoflurane anesthesia by exsanguination. Blood samples were collected from the caval vein in heparin-anticoagulated vacutainers (BD, Franklin Lakes, N.J.) and centrifuged for 10 min (3000×g, 4° C.). In rBDL animals sacrificed at baseline, bile was aspirated with a syringe from the dilated extrahepatic bile duct, weighed, and stored at −80° C. The liver and ileum were excised, weighed, loafed, and either fixed in a 10% (vol/vol) neutralized formalin solution (J. T. Baker, Center Valley, Pa.), snap-frozen in liquid nitrogen and stored at −80° C., or collected in RNAlater (Qiagen, Venlo, the Netherlands) and stored at −20° C. Liver regrowth was calculated from the regenerated liver mass, and was expressed as percentage of total liver mass prior to PHx. The projected remnant liver mass was calculated using the weight of the resected liver segments, which represent 70% of the total liver mass. Dry liver weights were measured to correct for hepatic water content [Kloek 2010a].
After formalin fixation, liver specimens were dehydrated, paraffin-embedded, and stained with hematoxylin and eosin (H&E), the collagen type I and III stain picrosirius red, or the proliferation marker Ki67 [Marsman 2013]. Semi-quantitative analysis of H&E- and picrosirius red-stained liver histology was performed by an experienced hepatopathologist (JV) blinded to the experimental groups using a scoring system detailed in Table 1. Ki67-positive hepatocyte nuclei were manually counted by two observers (RFG and PBO) in four randomly-selected microscopic fields at 200× magnification.

[1] = system: New Zealand White rabbits; assay: Liver injury after PVE: clinical chemistry and H&E histology (Example 5); format: in vivo, rabbit
Experimental: Liver tissue (left lateral and caudal lobes) was fixed in buffered formalin for 48 h, and subsequently dehydrated and embedded in paraffin. Four-micron sections of liver tissue were cut and stained with standard hematoxylin and eosin stain. Sections were scored for lobular and portal inflammation according to Table 1. Additionally, liver sections were stained with Ki67 antibodies to quantify hepatocyte proliferation, and hematoxylin counterstain as described in detail previously (van der Loos C M, et al. J Histochern Cytochern 2013; 61(1):11-8; Marsman H A, et al. Br J Surg 2013; 100(5):674-83). Ki67-positive hepatocytes were counted in a total of five high power fields per animal, by a hepatopathologist (JV) blinded to the group allocation. Liver histology was assessed at day 3 and 7 for n=6 per treatment group.
Serum alanine transaminase (ALT), amino aspartate aminotransferase (AST), gamma-glutamyl transferase (γGT), and alkaline phosphatase (ALP) were determined by the Department of Clinical Chemistry (Academic Medical Center, Amsterdam, The Netherlands) using a Cobas 8000 modular analyzer (Roche, Basel, Switzerland) on samples obtained from 12 animals per treatment group.

FXR = FXR target gene expression in terminal ileum and liver by RT-qPCR (Example 5); format: in vivo, rabbit
Experimental: Total RNA was isolated from terminal ileum and (non)embolized liver lobes using Tri Reagent (Ambion). Following treatment with DNAseI (Promega, Leiden, the Netherlands), 750 ng total RNA was converted to cDNA using the iSCRIPT cDNA synthesis kit (BioRad, Veenendaal, the Netherlands). Quantitative RT-PCR (real-time polymerase chain reaction) was performed on an IQ5 Cycler using SYBR Green chemistry (SYBR Green MasterMix, BioRad) and cDNA equivalent to 7.5 ng total RNA as template. Expression levels were calculated using LinReg software (Ramakers C, et al. Neurosci Lett 2003; 339(1):62-6) and normalized to the geometric mean of Rplp0, Hprt and Gapdh. Predicted product size was checked by agarose gel electrophoresis. PCR analysis was performed using tissue obtained at day 3 and 7 for n=6 per treatment group.

Adult female rabbits = assay: PVE in rabbits: CLV and bile salts (Example 5a); format: in vivo, rabbit; details: day 3 after PVE
Experimental: Adult female rabbits received vehicle or the FXR agonist obeticholic acid (OCA; 10 mg/kg, daily oral gavage) for 7 days prior to, and after embolization (day 0) of the cranial liver lobes. Effectiveness of PVE was confirmed by portography, and caudal liver volume (CLV) was analyzed by CT-volumetric analysis at days −7, −1, +3 and +7. Rabbits were sacrificed at day +3 and +7 (n=5-6 per group).

CC[C@H]1[C@@H](O)[C@@H]2[C@H](CC[C@]3(C)[C@@H]([C@H](C)CCC(=O)O)CC[C@@H]23)[C@@]2(C)CC[C@@H](O)C[C@@H]12 [Compound 1, 3α,7α-dihydroxy-6α-ethyl-5β-cholanic acid]
dry weight of the remnant liver (Wistar rats; at the time of PHx, vs other two groups): higher
number of Ki67+ hepatocytes (Wistar rats; day one after PHx): highest
mortality (Wistar rats; regeneration phase): no mortality
liver regrowth after 70% PHx (Wistar rats; vs untreated rBDL and control rats): stalled
plasma ALP vs vehicle ([1]; after PVE): slightly higher
plasma γGT vs vehicle ([1]; after PVE): slightly higher
hepatocellular injury or cholestasis ([1]; conclusion from ALT, AST, γGT, ALP): did not cause hepatocellular injury or cholestasis
histological scoring of H&E sections of the caudal lobe ([1]; day 3 and 7, vs vehicle, listed as OCA): no differences between groups
plasma transaminase levels vs vehicle ([1]; summary): similar
hepatic βKlotho transcript level (FXR; after three days): minor downregulation
hepatic Shp expression (FXR; caudal liver): without transcriptional induction
hepatic expression of Fgfr4 (FXR; caudal liver): not affected
hepatic expression of Cyp7a1 (FXR; caudal liver, day +3): strongly suppressed
Ostβ expression in the liver (FXR; day +3): elevated
ileal Shp expression (FXR; day +3): induction
hepatic Fxr expression (FXR; day +7): reduced
FXR activation (aggregated gene expression analysis) (FXR; ileum and liver, listed as OCA): activation of both ileal and hepatic FXR
ileal expression of Fxr (FXR; terminal ileum): no effect
ileal expression of Ostβ (FXR; terminal ileum): not affected
increase in CLV (Adult female rabbits): 59.3±19.2%
